The source made the active and inactive calls.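 Rule for the calls: active = caspase luminescence falls with dose and the half-maximal concentration AC50 from the fitted curve is at or below a set limit; inconclusive = flat fit at 30 to 70% signal loss, or invalid fit; inactive = AC50 above the limit, or signal rises instead.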
Tested on: INS-1E cytokine-induced caspase-3/7, Caspase-Glo luminescence, 48 h
Experiment: suppression of cytokine-driven beta-cell apoptosis – INS-1E rat cells, luminescence, orthogonal assay for beta-cell apoptosis protection project, dose response (AID 463206)

Row | SMILES | AC50
1 | CCCCCCCCCCn1c2c(c(=N)c3c1CCC3)CCC2 | > 26 µM (inactive)
2 | O=C(Nc1nc(-c2ccccn2)cs1)c1cc(Cl)ccc1[N+](=O)[O-] | > 26 µM (inactive)
3 | CCOc1ccc(-c2cc(C(=O)NCCCn3ccnc3)c3cc(Br)ccc3n2)cc1 | > 12 µM (inactive)
4 | C=CCN(CC=C)CC(O)Cn1c2ccccc2c2ccccc21 (stereo not drawn) | > 26 µM (inactive)
5 | CCC1CCCCN1S(=O)(=O)c1ccc(NC(=O)c2nc(S(C)(=O)=O)ncc2Cl)cc1 (stereo not drawn) | > 26 µM (inactive)
6 | O=C(c1cccnc1)N(c1cc2sc(=O)oc2c2ccccc12)S(=O)(=O)c1ccccc1 | > 26 µM (inactive)
7 | C=C(C(=O)c1ccccc1)C(C)C(=C)C(=O)c1ccccc1 | > 26 µM (inactive)
8 | CCN(CC)c1ccc(/C=N/NC(=O)c2cnccn2)c(O)c1 | > 26 µM (inactive)
9 | CCC(=O)NC(c1ccc(Cl)cc1Cl)c1ccc2cccnc2c1O (stereo not drawn) | > 12 µM (inactive)
10 | Cc1cc(C2CCCCC2)n(O)c(=O)c1 | > 26 µM (inactive)
11 | CCC1(OC(=O)CN)C(=O)OCc2c1cc1n(c2=O)Cc2cc3ccccc3nc2-1 (stereo not drawn) | 0.33 µM
12 | CC(=O)Nc1ccc(S(=O)(=O)Nc2ccc(N3CCCCC3)cc2)cc1 | > 26 µM (inactive)
13 | O=C1CSC(c2ccccc2F)N1 (stereo not drawn) | > 26 µM (inactive)
14 | Cc1nc(NCCc2ccc(S(N)(=O)=O)cc2)c2c(C)c(C)sc2n1 | > 26 µM (inactive)
15 | CCc1cc(CNC(=O)c2ccc3nc(Cc4ccc(OC)c(OC)c4)oc3c2)on1 | > 26 µM (inactive)
16 | COc1ccc(Cn2c(SCc3ccc(C)cc3)nc3cc(OC)c(OC)cc3c2=N)cc1Cl | > 26 µM (inactive)
17 | Cc1oc(/N=C/c2ccccc2)c(C#N)c1C | > 26 µM (inactive)
18 | O=C(Nc1nc(NC(=O)c2ccco2)n(-c2ccccc2)n1)c1ccccc1 | > 26 µM (inactive)
19 | Cc1ccc(NC(=O)C2CCN(S(=O)(=O)c3ccc(N4CCCC4=O)cc3)CC2)cc1Cl | > 26 µM (inactive)
20 | Nc1ccc(Nc2ccccc2)cc1 | 17.7 µM
21 | N=c1c2c(n(Cc3ccc(Br)cc3)c3c1CCC3)CCCC2 | > 26 µM (inactive)
22 | CC(=O)NC(c1cccs1)c1cc(F)c2cccnc2c1O (stereo not drawn) | > 26 µM (inactive)
23 | C[C@@H]1CN([C@H](C)CO)C(=O)c2cc(NC(=O)Nc3ccc(C(F)(F)F)cc3)ccc2O[C@H]1CN(C)S(=O)(=O)c1cccs1 | > 26 µM (inactive)
24 | O=C(N/N=C/c1c(O)ccc2ccccc12)c1ccc(Br)o1 | > 26 µM (inactive)

Row | SMILES | AC50
25 | O=S(=O)(C/C(=C/CO)S(=O)(=O)c1ccccc1)c1ccccc1 | 4.21 µM
26 | COc1cccc(/C=N/NC(=O)c2cc3c(OC)ccc(OC)c3[nH]2)c1O | > 26 µM (inactive)
27 | Cc1cccc(C2(c3cccc(C)c3)OC(=O)c3ccccc32)c1 | > 26 µM (inactive)
28 | O=C(Cc1ccccc1)N/N=C/c1ccc([N+](=O)[O-])s1 | > 26 µM (inactive)
29 | Nc1nc2ccccc2n1/N=C/c1ccc([N+](=O)[O-])s1 | > 26 µM (inactive)
30 | Oc1c(Br)cc(Br)cc1/C=N/NC(=S)N[C@H]1CC2C=CC1C2 (stereo partly drawn) | > 26 µM (inactive)
31 | CCC(CO)[n+]1c(C)cc(/C=C2\Sc3ccccc3N2Cc2ccccc2)cc1C (stereo not drawn) | > 26 µM (inactive)
32 | N#CC(C#N)=NNc1ccc(-n2ccc(C(F)(F)F)n2)cc1 | > 26 µM (inactive)
33 | O=C(Nc1ccc(Cl)cc1)Nc1csc([N+](=O)[O-])c1 | > 26 µM (inactive)
34 | N#Cc1ccc(-c2ccc(Cl)cc2)nc1SCC(=O)c1cccc(Cl)c1 | > 26 µM (inactive)
35 | Oc1ccc(-c2n[nH]c(C(F)(F)F)c2-c2ccccc2)c(O)c1 | > 26 µM (inactive)
36 | COc1ccc(C)cc1Nc1n[n+](-c2ccccc2)c(-c2ccc(N(C)C)cc2)s1 | > 26 µM (inactive)
37 | C/C(=N\NC(=O)c1ccccc1OCc1ccc(F)cc1)c1ccccn1 | > 26 µM (inactive)
38 | Cc1[nH]c2ccccc2c1CN1CCN(c2ccccn2)CC1 | > 26 µM (inactive)
39 | O=C(Oc1cccc2cccnc12)c1cccc(N2C(=O)C3C4CCC(C4)C3C2=O)c1 (stereo not drawn) | > 26 µM (inactive)
40 | CCN1C/C(=C/c2cccc([N+](=O)[O-])c2)C(=O)/C(=C/c2cccc([N+](=O)[O-])c2)C1 | > 26 µM (inactive)
41 | Cc1ccc(NS(=O)(=O)c2ccc(NC(=O)CN(c3cc([N+](=O)[O-])ccc3C)S(C)(=O)=O)cc2)c(C)c1 | > 26 µM (inactive)
42 | O=C1C=C(c2ccc(F)cc2OCc2ccccc2)C[C@@H](c2ccc(Cl)cc2)C1 | > 26 µM (inactive)
43 | COc1ccc(C(NC(C)=O)c2ccc3cccnc3c2O)c(OC)c1 (stereo not drawn) | > 26 µM (inactive)
44 | Cc1cccc(NC2=C/C(=N/S(=O)(=O)c3cccs3)c3ccccc3C2=O)c1 | > 26 µM (inactive)
45 | CCS(=O)(=O)c1ccc(OC)c(N=Nc2ccc(O)c3ncccc23)c1 | > 26 µM (inactive)
46 | CNC(=O)c1cc(Oc2ccc(NC(=O)Nc3ccc(Cl)c(C(F)(F)F)c3)cc2)ccn1 | > 26 µM (inactive)
47 | O=C(Nc1ccc(C(=O)Nc2ccccc2Cl)cc1)c1cccnc1 | > 26 µM (inactive)
48 | c1ccc(-c2nnc3sc(-c4csc5c4CCCC5)nn23)cc1 | > 26 µM (inactive)

From PubChem BioAssay AID463206 (Broad Institute, 2010)
